We go through 20 molecules from patent US11759455B2, “Substituted 1H-imidazo[4,5-b]pyridin-2(3H)-ones and their use as GLUN2B receptor modulators” (JANSSEN PHARMACEUTICA NV, priority 2016, dated 2023).

The test deals with T1, human GluN1/GluN2B NMDA receptors (Homo sapiens, UniProt Q05586+Q13224).
T1 construct: expressed in transfected cells
The experiment in a line: Cell-based calcium flux (FLIPR) assay on cloned human NR1/NR2B ion channels expressed in mammalian cells (standard and HTS buffer variants).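 Further: stable Tet-On inducible cell line, Ca2+ influx triggered by glutamate at about EC40 plus 10 µM glycine, fluorescent dye read-out over 5 min, normalized to control wells.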

The mark [1] stands for this setting: standard assay buffer (0.5 mM MgCl2 dye loading; 137 mM NaCl, 4 mM KCl assay buffer), human GluN1/GluN2B cells, read-out: NR2B IC50 (μM) standard assay.
Where [2] appears, read: standard assay buffer (0.5 mM MgCl2 in dye loading buffer; 137 mM NaCl, 4 mM KCl in assay buffer), human GluN1/GluN2B, read-out: NR2B IC50 (μM) standard assay.
Setting [3] is: HTS assay buffer (1.5 mM MgCl2 dye loading; 150 mM NaCl, 3 mM KCl assay buffer), human GluN1/GluN2B cells, read-out: NR2B IC50 (μM) HTS assay.

Read-outs that look alike come from different tables or passages of the source.

T1 sequence (Q13224 27-1484, other chains not shown): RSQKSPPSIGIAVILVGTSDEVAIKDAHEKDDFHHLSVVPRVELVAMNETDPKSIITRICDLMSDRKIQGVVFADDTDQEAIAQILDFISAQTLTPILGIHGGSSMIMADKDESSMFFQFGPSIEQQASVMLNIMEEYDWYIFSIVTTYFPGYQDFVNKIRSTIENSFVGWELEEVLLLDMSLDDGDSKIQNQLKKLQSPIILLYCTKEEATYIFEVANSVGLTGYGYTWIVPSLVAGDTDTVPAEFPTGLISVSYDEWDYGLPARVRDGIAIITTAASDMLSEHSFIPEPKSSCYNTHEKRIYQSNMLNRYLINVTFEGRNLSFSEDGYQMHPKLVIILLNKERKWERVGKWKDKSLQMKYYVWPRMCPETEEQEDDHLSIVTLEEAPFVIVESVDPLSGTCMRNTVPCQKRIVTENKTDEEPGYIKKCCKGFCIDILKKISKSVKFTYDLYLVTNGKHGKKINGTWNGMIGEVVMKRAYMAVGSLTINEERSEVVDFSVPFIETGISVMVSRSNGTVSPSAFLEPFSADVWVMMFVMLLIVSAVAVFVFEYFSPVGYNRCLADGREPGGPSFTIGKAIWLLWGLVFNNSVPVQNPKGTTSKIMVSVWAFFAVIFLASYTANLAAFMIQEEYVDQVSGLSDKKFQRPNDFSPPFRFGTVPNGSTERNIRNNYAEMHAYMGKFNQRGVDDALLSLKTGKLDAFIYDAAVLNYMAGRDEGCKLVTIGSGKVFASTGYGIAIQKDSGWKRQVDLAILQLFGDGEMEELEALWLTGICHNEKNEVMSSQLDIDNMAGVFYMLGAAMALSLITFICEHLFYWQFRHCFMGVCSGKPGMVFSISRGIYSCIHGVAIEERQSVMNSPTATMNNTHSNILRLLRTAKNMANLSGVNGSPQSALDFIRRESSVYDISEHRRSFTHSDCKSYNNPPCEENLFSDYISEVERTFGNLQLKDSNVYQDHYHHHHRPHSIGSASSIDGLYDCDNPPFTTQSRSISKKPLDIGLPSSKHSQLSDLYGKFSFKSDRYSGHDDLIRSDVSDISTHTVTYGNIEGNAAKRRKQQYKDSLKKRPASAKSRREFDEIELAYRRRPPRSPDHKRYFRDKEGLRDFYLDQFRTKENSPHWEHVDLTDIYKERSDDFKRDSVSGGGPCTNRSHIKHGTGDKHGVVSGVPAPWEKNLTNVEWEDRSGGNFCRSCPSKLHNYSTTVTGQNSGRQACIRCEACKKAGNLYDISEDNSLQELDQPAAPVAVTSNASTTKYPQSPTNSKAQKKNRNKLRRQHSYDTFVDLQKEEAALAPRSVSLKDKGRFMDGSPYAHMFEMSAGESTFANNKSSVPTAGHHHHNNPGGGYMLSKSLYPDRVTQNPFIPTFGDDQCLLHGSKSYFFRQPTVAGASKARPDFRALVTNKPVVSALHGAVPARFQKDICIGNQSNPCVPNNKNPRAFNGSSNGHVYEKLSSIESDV

For the molecule `O=c1[nH]c2ncc(-c3ccccc3)cc2n1CC1CCN1` (racemic) [Example 265, (R/S)-1-(Azetidin-2-ylmethyl)-6-phenyl-3H-imidazo[4,5-b]pyridin-2-one], the IC50 under setting [1] came to 0.397 µM.

With `Cn1c(=O)n(CC2CCO2)c2cc(-c3cccc(Cl)c3)cnc21` (racemic) [Example 397, (R/S)-6-(3-Chlorophenyl)-3-methyl-1-(oxetan-2-ylmethyl)imidazo[4,5-b]pyridin-2-one], the IC50 under setting [2] came to 0.228 µM.

Take `CCC(O)Cn1c(=O)[nH]c2ncc(-c3ccc(OC)cc3)cc21` (single isomer, unassigned) [Example 4, (S*)-1-(2-Hydroxybutyl)-6-(4-methoxyphenyl)-3H-imidazo[4,5-b]pyridin-2-one]: the IC50 under setting [1] amounted to 0.32 µM.

Take `O=c1[nH]c2ncc(-c3cccc(C(F)(F)F)c3)cc2n1CC1CCO1` (single isomer, unassigned) [Example 224, (S*)-1-(Oxetan-2-ylmethyl)-6-[3-(trifluoromethyl)phenyl]-3H-imidazo[4,5-b]pyridin-2-one]: the IC50 under setting [1] came out at 0.054 µM.

Take `COc1ccc(-c2cnc3[nH]c(=O)n(Cc4ccccc4C#N)c3c2)cc1C` [Example 608, 2-[[6-(4-Methoxy-3-methyl-phenyl)-2-oxo-3H-imidazo[4,5-b]pyridin-1-yl]methyl]benzonitrile]: the IC50 under setting [2] is 1.02 µM.

In the case of `[2H]c1c(-c2ccc(C(F)(F)F)s2)cnc2c1n(CC(=O)N1CCC1)c(=O)n2C` [Example 120, 1-(2-(Azetidin-1-yl)-2-oxoethyl)-3-methyl-6-(5-(trifluoromethyl)thiophen-2-yl)-1,3-dihydro-2H-imidazo[4,5-b]pyridin-2-one-7-D], the IC50 under setting [1] is 0.01 µM.

As to `Cc1cc(-c2cnc3c(c2)n(CC(=O)N2CCC2)c(=O)n3C)ccc1F` [Example 410, 1-[2-(Azetidin-1-yl)-2-oxo-ethyl]-6-(4-fluoro-3-methyl-phenyl)-3-methyl-imidazo[4,5-b]pyridin-2-one], under setting [2], the IC50 was determined as 0.013 µM.

Turning to `CCC(O)Cn1c(=O)[nH]c2ncc(-c3ccc(F)cc3C)cc21` (single isomer, unassigned) [Example 44, (S*)-6-(4-Fluoro-2-methyl-phenyl)-1-(2-hydroxybutyl)-3H-imidazo[4,5-b]pyridin-2-one], the IC50 under setting [3] was 0.325 µM.

On to `O=c1[nH]c2ncc(-c3cccc(C(F)(F)F)c3F)cc2n1CC1CCN1` (racemic) [Example 264, (R/S)-1-(Azetidin-2-ylmethyl)-6-[2-fluoro-3-(trifluoromethyl)phenyl]-3H-imidazo[4,5-b]pyridin-2-one], for which the IC50 under setting [1] was found to be 0.044 µM.

As for `COCCC(O)Cn1c(=O)n(C)c2ncc(-c3ccc(F)c(C)c3)cc21` (racemic) [Example 393, (R/S)-6-(4-Fluoro-3-methyl-phenyl)-1-(2-hydroxy-4-methoxy-butyl)-3-methyl-imidazo[4,5-b]pyridin-2-one], under setting [2], the IC50 was 0.486 µM.

As for `O=c1[nH]c2ncc(-c3ccc(F)c(C(F)(F)F)c3)cc2n1CC1CCN1` (racemic) [Example 267, (R/S)-1-(Azetidin-2-ylmethyl)-6-[4-fluoro-3-(trifluoromethyl)phenyl]-3H-imidazo[4,5-b]pyridin-2-one], the 50% inhibitory concentration (IC50) under setting [1] was determined as 0.442 µM.

In the case of `O=c1[nH]c2ncc(-c3cccc(C(F)(F)F)c3)cc2n1CC1CCCCO1` (racemic) [Example 218, (R/S)-1-(Tetrahydropyran-2-ylmethyl)-6-[3-(trifluoromethyl)phenyl]-3H-imidazo[4,5-b]pyridin-2-one], the IC50 under setting [1] came to 0.552 µM.

With `Cc1c(-c2cnc3c(c2)n(CC2CCO2)c(=O)n3C)cccc1C(F)(F)F` (racemic) [Example 398, (R/S)-3-Methyl-6-[2-methyl-3-(trifluoromethyl)phenyl]-1-(oxetan-2-ylmethyl)imidazo[4,5-b]pyridin-2-one], the IC50 under setting [2] was 2.84 µM.

For `O=c1[nH]c2ncc(-c3ccc(F)c(C(F)(F)F)c3)cc2n1CC1CCO1` (racemic) [Example 271, (R/S)-6-[4-Fluoro-3-(trifluoromethyl)phenyl]-1-(oxetan-2-ylmethyl)-3H-imidazo[4,5-b]pyridin-2-one], the IC50 under setting [1] was found to be 0.046 µM.

As to `Cn1c(=O)n(CC(=O)N2CC(F)C2)c2cc(-c3csc(C(F)(F)F)c3)cnc21` [Example 102, 1-[2-(3-Fluoroazetidin-1-yl)-2-oxo-ethyl]-3-methyl-6-[5-(trifluoromethyl)-3-thienyl]imidazo[4,5-b]pyridin-2-one], the half-maximal inhibitory concentration (IC50) under setting [1] amounted to 0.018 µM.

Consider `Cn1c(=O)n(CC2CCN2)c2cc(-c3cccc(C(F)(F)F)c3)cnc21` (racemic) [Example 245, (R/S)-1-(Azetidin-2-ylmethyl)-3-methyl-6-[3-(trifluoromethyl)phenyl]imidazo[4,5-b]pyridin-2-one], for which, under setting [1], the 50% inhibitory concentration (IC50) was found to be 0.409 µM.

Turning to `Cc1cc(-c2cnc3c(c2)n(CC2CCO2)c(=O)n3C)ccc1F` (racemic) [Example 395, (R/S)-6-(4-Fluoro-3-methyl-phenyl)-3-methyl-1-(oxetan-2-ylmethyl)imidazo[4,5-b]pyridin-2-one], under setting [2], the IC50 is 1.2 µM.

With `O=c1[nH]c2ncc(-c3ccc(F)cc3)cc2n1CC1CCN1` (racemic) [Example 266, (R/S)-1-(Azetidin-2-ylmethyl)-6-(4-fluorophenyl)-3H-imidazo[4,5-b]pyridin-2-one], under setting [1], the IC50 was determined as 0.173 µM.

On to `CCC(O)Cn1c(=O)[nH]c2ncc(-c3ccc(F)cc3C)cc21` (single isomer, unassigned) [Example 43, (R*)-6-(4-Fluoro-2-methyl-phenyl)-1-(2-hydroxybutyl)-3H-imidazo[4,5-b]pyridin-2-one], for which the IC50 under setting [3] stood at 3.49 µM.

On to `CC(C(=O)NC1CC1)n1c(=O)[nH]c2ncc(-c3cccc(C(F)(F)F)c3)cc21` (racemic) [Example 202, (R/S)—N-Cyclopropyl-2-[2-oxo-6-[3-(trifluoromethyl)phenyl]-3H-imidazo[4,5-b]pyridin-1-yl]propanamide], for which the IC50 under setting [1] turned out to be 7.32 µM.

A word on the IC50: it is the point on the concentration scale where inhibition reaches its midpoint.
